Experiments:
DU-145 = assay: In vitro inhibition of DU145 (human prostate cancer) cell growth.; format: functional
PC-3 = assay: Concentration required to inhibit growth of human prostate (PC3) cell line; format: functional
Mus musculus [1] = assay: (§1) Anticancer activity after implantation of HT-29 human adeno carcinoma xenograft in mice at a dose of 300 mg/kg; format: functional
ACHN = assay: Concentration required to inhibit growth of human renal (ACHN) cell line; format: functional
Mus musculus [2] = assay: as §1; format: functional; parameters: reference not given here
SK-OV-3 = assay: Concentration required to inhibit growth of human ovarian (SK-OV3) cell line; format: functional
OVCAR-8 = assay: Concentration required to inhibit growth of human ovarian (OVCAR8) cell line; format: functional
MCF7 = assay: Concentration required to inhibit growth of human breast (MCF-7) cell line; format: functional
Mus musculus [3] = assay: Anticancer activity after implantation of HT-29 human adeno carcinoma xenograft in mice at a dose of 300 mg/kg; 1/6; format: functional
SW-620 = assay: Concentration required to inhibit growth of human colon (SW620) cell line; format: functional
U-251 = assay: Concentration required to inhibit growth of human CNS (U251) cell line; format: functional
NCI/ADR-RES = assay: in vitro inhibition of MCF-7/ADR (human breast cancer) cell growth.; format: functional
HT-29 = assay: Concentration required to inhibit growth of human colon (HT-29) cell line; format: functional
NCI-H522 (Homo sapiens) = assay: Concentration required to inhibit growth of human lung (H522) cell line
UACC-62 = assay: Concentration required to inhibit growth of human melanoma (UACC62) cell line; format: functional
Mus musculus [4] = assay: Anticancer activity after implantation of HT-29 human adeno carcinoma xenograft in mice at a dose of 300 mg/kg; 0/6; format: functional

Row | Structure (SMILES) | GI50 (DU-145) [µM] | GI50 (PC-3) [µM] | inhibition in vivo at 300 mg/kg (Mus musculus [1]) [%] | GI50 (ACHN) [µM] | Mean body weight (Mus musculus [2]) [%] | GI50 (SK-OV-3) [µM] | GI50 (OVCAR-8) [µM] | GI50 (MCF7) [µM] | Mortality (Mus musculus [3]) | GI50 (SW-620) [µM] | GI50 (U-251) [µM] | GI50 (NCI/ADR-RES) [µM] | GI50 (HT-29) [µM] | GI50 (NCI-H522 (Homo sapiens)) [µM] | GI50 (UACC-62) [µM] | Mortality (Mus musculus [4])
1 | O=S(=O)(/C=C/c1ccc(Cl)cc1Cl)Cc1ccc(Nc2ncnc3ccc(Br)cc23)cc1 | 2 | 4 | 22 | 0.1 | 4 | 1 | 3 | 4 | 1 | > 100 | 4 | > 100 | 28 | 8 | 2 | 
2 | O=S(=O)(/C=C/c1ccc(Cl)cc1Cl)Cc1ccc(Nc2ncnc3ccccc23)cc1 | 3 | 19 | 22 | 0.1 | 7 | 2 | 4 | 4 |  | 14 | 4 | 5 | 24 | 12 | 2 | 0
3 | COc1cc2ncnc(Nc3ccc(CS(=O)(=O)/C=C/c4ccc(Cl)cc4Cl)cc3)c2cc1OC | 1.4 | 5 | 68 | 15 | 12 | 2 | 2 | 11 |  | 2 | 13 | 24 | 6 | 6 | 21 | 0

From ChEMBL document CHEMBL1146712, “Synthesis and biological evaluation of [4-(2-phenylethenesulfonylmethyl)phenyl]-quinazolin-4-yl-amines as orally active anti-cancer agents” (2004)
